Experimental data as given in patent US20200061062A1, “INHIBITORS OF HUMAN PHOSPHATIDYLINOSITOL 3-KINASE DELTA” (ICOS Corporation, priority 2000, published 2020).
Where two headings read alike, the source gives them in different places.

How the values were obtained:
PI3Kβ [1] = molecular target: T1, PI3Kβ (Homo sapiens, UniProt P42338); assay: Biochemical assay of PI3K potency and selectivity using 20 μM ATP, Beta; details: for Beta/Delta Ratio / remaining activity at 100 µM: 20 μM ATP; for Beta/Delta Ratio: ratio of IC50 values, > = hypothetical ratio with 100 μM substituted for the missing IC50; for remaining activity at 100 µM: read-out: Beta: percent activity remaining at 100 μM, 100 μM compound did not inhibit by at least 50%
T1 construct: His tag (pFastbac HTa vector) (N); FLAG (N); made in house; host or cells: Sf21 insect cells (baculovirus)
T1 sequence (P42338 whole entry): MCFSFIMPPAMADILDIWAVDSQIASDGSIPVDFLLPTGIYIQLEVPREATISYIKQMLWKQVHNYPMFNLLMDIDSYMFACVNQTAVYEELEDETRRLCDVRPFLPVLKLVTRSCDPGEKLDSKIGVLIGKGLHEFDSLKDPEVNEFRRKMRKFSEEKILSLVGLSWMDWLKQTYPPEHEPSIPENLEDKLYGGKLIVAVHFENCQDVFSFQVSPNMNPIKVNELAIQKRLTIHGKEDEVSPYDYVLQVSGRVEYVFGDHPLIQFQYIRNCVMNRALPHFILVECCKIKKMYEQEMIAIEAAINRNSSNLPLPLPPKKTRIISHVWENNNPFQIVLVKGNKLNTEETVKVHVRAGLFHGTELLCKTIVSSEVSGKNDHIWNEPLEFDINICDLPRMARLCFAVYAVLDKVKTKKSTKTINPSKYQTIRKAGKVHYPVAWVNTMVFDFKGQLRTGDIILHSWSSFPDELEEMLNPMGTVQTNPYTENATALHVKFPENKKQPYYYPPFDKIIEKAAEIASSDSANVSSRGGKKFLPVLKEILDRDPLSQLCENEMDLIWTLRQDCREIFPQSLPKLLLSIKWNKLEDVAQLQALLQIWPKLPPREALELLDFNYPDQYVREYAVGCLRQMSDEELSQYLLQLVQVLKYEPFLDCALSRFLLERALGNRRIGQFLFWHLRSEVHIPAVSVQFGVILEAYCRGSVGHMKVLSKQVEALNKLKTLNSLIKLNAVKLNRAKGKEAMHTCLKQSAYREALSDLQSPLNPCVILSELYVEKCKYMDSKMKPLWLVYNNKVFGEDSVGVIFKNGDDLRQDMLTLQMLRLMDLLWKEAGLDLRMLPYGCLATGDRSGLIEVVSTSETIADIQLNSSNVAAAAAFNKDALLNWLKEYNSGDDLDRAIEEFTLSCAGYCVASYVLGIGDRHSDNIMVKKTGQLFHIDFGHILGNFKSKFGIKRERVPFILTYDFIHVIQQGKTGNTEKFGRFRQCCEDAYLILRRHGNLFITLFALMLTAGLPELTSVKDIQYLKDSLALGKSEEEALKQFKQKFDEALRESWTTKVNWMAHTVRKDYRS
T1 sequence (P27986 whole entry partner): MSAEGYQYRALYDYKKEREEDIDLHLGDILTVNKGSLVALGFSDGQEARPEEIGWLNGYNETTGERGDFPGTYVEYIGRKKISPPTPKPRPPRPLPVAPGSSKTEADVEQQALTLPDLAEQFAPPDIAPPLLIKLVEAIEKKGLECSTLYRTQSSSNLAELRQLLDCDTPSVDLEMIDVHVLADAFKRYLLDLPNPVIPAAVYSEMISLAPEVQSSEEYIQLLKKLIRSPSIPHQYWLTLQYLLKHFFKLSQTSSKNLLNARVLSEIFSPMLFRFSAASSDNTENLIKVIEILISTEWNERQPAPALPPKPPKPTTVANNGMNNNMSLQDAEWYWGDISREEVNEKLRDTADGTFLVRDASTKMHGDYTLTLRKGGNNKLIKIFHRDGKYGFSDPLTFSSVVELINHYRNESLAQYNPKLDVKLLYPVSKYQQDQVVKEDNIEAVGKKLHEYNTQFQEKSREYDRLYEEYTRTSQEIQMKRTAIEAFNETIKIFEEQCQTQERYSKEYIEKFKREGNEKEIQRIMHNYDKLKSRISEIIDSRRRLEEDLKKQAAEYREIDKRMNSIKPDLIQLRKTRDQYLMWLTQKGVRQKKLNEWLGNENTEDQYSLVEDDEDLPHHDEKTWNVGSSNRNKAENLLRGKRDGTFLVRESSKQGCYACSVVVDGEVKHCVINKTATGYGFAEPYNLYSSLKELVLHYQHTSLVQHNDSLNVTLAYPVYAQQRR
Method in brief: (§1)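 Lipid-kinase radiometric assay with γ-[32P]ATP (20 μM ATP) on PIP2/PS liposomes in 20 mM HEPES pH 7.4; the 3× substrate mix held […] and 6 μM liposomes.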

PI3Kγ [2] = molecular target: T2, PI3Kγ (Homo sapiens, UniProt P48736); assay: Biochemical assay of PI3K potency and selectivity using 20 μM ATP, Gamma; details: for Gamma/Delta Ratio: ratio of IC50 values
T2 construct: His tag (pFastbac HTb vector) (N); FLAG (N); made in house; host or cells: Sf21 insect cells (baculovirus)
T2 sequence (P48736 whole entry): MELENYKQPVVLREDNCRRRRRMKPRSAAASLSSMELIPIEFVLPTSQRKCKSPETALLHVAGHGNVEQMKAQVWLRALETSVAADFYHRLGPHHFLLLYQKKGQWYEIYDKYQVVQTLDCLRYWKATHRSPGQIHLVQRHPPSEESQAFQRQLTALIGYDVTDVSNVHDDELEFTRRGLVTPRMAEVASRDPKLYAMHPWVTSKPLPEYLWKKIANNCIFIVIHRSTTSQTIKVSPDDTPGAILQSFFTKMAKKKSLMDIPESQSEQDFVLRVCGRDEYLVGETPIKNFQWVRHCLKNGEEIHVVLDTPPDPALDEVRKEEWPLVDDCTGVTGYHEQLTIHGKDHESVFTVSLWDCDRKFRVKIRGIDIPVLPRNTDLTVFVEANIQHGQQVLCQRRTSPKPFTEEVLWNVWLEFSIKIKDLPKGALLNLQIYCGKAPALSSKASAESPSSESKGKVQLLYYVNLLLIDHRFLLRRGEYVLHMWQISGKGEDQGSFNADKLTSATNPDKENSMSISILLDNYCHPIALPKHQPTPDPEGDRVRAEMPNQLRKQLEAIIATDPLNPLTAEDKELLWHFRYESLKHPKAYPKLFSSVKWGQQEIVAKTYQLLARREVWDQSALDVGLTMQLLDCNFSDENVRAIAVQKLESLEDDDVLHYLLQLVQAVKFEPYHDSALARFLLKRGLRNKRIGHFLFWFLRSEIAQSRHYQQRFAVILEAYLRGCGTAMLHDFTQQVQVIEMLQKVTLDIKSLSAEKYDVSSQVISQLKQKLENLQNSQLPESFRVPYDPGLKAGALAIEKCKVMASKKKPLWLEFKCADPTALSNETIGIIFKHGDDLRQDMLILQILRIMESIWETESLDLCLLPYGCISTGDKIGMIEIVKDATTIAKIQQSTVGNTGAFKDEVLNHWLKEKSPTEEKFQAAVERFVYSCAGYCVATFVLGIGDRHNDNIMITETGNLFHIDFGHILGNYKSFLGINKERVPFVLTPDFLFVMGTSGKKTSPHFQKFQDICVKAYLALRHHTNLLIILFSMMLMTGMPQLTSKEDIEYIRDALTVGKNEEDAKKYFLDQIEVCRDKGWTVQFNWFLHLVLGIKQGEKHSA

PI3Kα = molecular target: T3, PI3Kα (Homo sapiens, UniProt P42336); assay: Biochemical assay using 200 μM ATP, Alpha
T3 construct: His tag (pFastbac HTb vector) (N); FLAG; made in house; host or cells: Sf21 insect cells (baculovirus)
T3 sequence (P42336 whole entry): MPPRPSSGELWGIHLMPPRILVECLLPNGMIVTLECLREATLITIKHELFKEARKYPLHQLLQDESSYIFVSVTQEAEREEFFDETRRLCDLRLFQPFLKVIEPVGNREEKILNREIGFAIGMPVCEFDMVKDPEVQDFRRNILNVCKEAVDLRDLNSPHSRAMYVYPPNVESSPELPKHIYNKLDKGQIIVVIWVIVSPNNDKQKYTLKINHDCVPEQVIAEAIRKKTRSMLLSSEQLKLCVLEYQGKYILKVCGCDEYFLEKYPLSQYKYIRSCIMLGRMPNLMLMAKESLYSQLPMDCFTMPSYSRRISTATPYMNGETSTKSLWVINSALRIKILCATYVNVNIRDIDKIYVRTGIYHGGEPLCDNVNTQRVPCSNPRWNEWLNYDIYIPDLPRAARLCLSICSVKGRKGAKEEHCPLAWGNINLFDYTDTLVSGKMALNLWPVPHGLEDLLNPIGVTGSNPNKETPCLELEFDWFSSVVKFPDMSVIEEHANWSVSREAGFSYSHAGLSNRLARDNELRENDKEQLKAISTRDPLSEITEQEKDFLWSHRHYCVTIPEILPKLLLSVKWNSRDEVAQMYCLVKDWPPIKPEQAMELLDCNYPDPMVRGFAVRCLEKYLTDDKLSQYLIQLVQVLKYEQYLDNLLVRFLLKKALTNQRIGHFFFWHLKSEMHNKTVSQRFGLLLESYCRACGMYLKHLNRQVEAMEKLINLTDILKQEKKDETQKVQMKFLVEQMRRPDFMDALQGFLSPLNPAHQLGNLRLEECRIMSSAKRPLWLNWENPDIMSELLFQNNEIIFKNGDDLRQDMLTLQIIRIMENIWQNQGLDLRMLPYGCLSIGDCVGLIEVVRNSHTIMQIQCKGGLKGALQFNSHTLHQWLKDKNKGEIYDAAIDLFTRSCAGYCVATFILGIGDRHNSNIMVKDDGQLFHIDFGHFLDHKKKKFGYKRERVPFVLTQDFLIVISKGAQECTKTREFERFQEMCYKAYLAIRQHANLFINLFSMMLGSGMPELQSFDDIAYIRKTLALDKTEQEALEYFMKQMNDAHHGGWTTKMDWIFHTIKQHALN
T3 sequence (P27986 whole entry partner): as the sequence (P27986 whole entry partner) above

PI3Kβ [3] = molecular target: T1, PI3Kβ; assay: Biochemical assay using 200 μM ATP, Beta
PI3Kγ [4] = molecular target: T2, PI3Kγ; assay: Biochemical assay using 200 μM ATP, Gamma
Method: (§2) PI3Kδ catalyzes a phosphotransfer from γ-[^32P]ATP to PIP2/PS liposomes at the D3′ position of the PIP2 lipid inositol ring. This reaction is MgCl2 dependent and is quenched in high molarity potassium phosphate buffer pH 8.0 containing 30 mM EDTA. […] The reaction products (and all unlabelled products) are transferred to a 96-well, prewetted PVDF filter plate, filtered, and washed in high molarity potassium phosphate. Scintillant is added to the dried wells and the incorporated radioactivity is quantitated.
(§3) This dilution established a final concentration of 200 μM ATP in the reaction volume. The reaction was stopped with 150 μL quench buffer (1.0 M potassium phosphate pH 8.0, 30 mM EDTA). A portion of the quenched solution (180 μL) was then transferred to a PVDF filter plate (Millipore # MAIP NOB prewetted with sequential 200 μL washes of 100% methanol, water, and finally 1.0 M potassium phosphate pH 8.0 wash buffer).
(§4) The PVDF filter plate was aspirated under moderate vacuum (2-5 mm Hg), washed with 5×200 μL of wash buffer, and then dried by aspiration. The filter was subsequently blotted, allowed to air dry completely, and inserted into a Wallac counting cassette with 50 μL of Ecoscint scintillation cocktail added per well.
(§5) Subsequent selectivity assays were done similarly using the same 3× substrate stocks except they contained 0.05 mCi/mL γ[^32P]ATP and 3 mM PIP2. Subsequent selectivity assays also used the same 3× enzyme stocks, except they now contained 3 nM of any given PI3K isoform.
(§6) For all selectivity assays, the test compounds were weighed out and dissolved into 10-50 mM stocks in 100% DMSO (depending on their respective solubilities) and stored at −20° C. […] From these dilutions, 20 μL was added into the assay wells alongside water blanks used for the enzyme (positive) control and the no enzyme (background) control.
(§7) This selectivity protocol is identical to that described above, except the 3× stock ATP concentration was 600 μM.

human neutrophils = assay: fMLP-induced human neutrophil migration; format: cell-based
Method: Neutrophils have the intrinsic capacity to migrate through tissues, and are one of the first cell types to arrive at the sites of inflammation or tissue injury. The effect of D-000 on neutrophil migration towards a concentration gradient of fMLP was measured. The day before the migration assays were performed, 6-well plates were coated with recombinant ICAM-1/Fc fusion protein (Van der Vieren et al., Immunity, 3:683-690 (1995)) (25 μg/mL in bicarbonate buffer, pH 9.3) and left overnight at 4° C. After washing, 1% agarose solution, in RPMI-1640 with 0.5% bovine serum albumin (BSA), was added to wells with or without an inhibitor, and plates were placed into a refrigerator before punching holes in the gelled agarose to create plaques (1 central hole surrounded by 6 peripheral ones per well).
Human neutrophils were obtained as described above, and resuspended in RPMI medium supplemented with 0.5% BSA at 5×10^6 cells/mL. After combining equal volumes of neutrophil suspension and medium (either with DMSO or a serial dilution of the test compound in DMSO), neutrophils were aliquoted into the peripheral holes, while the central hole received fMLP (5 μM). Plates were incubated at 37° C. in the presence of 5% CO2 for 4 hr, followed by termination of migration by the addition of 1% glutaraldehyde solution in D-PBS. After removing the agarose layer, wells were washed with distilled water and dried.
Analysis of neutrophil migration was conducted on a Nikon DIAPHOT® inverted microscope (1× objective) video workstation using the NIH 1.61 program. Using Microsoft Excel and Table Curve 4 (SSPS Inc., Chicago Ill.) programs, a migration index was obtained for each of the studied conditions. Migration index was defined as the area under a curve representing number of migrated neutrophils versus the net distance of migration per cell.
Using the methods described in Examples 3-5, above, compounds of the invention were tested for inhibitory activity and potency in assays of stimulated B and T cell proliferation, neutrophil (PMN) migration, and neutrophil (PMN) elastase release. In Table 4, the values shown are effective concentrations of the compound (EC50; μM). Where no value is given, no assay was performed.

[5] = system: Murine splenocytes (Balb/c); assay: B cell proliferation in response to cell surface IgM stimulation; format: cell-based; details: Mus musculus, Splenocyte; for EC50: stimulated B cell proliferation, read-out: Mouse BCR Stim (EC50)
Method in brief: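 Balb/c splenocytes (2×10^5/well, 10% FBS/RPMI) preincubated 30-60 min with inhibitor, then stimulated with goat F(ab′)2 anti-mouse IgM μ-chain at 25 μg/mL final. Cultured 3 days at 37° C., [^3H]-thymidine pulsed for final 4 h; incorporation counted as CPM. Values are EC50 (μM).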

PI3Kδ [6] = molecular target: T4, PI3Kδ (Homo sapiens, UniProt O00329, S253N); assay: Biochemical assay using 200 μM ATP, Delta;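 also: radiometric filter-binding assay: PI3Kδ transfers ³²P from γ-[³²P]ATP onto PIP2/PS liposomes, counted by scintillation, enzyme-only wells as positive control, no-enzyme wells as background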
T4 sequence (O00329 whole entry S253N): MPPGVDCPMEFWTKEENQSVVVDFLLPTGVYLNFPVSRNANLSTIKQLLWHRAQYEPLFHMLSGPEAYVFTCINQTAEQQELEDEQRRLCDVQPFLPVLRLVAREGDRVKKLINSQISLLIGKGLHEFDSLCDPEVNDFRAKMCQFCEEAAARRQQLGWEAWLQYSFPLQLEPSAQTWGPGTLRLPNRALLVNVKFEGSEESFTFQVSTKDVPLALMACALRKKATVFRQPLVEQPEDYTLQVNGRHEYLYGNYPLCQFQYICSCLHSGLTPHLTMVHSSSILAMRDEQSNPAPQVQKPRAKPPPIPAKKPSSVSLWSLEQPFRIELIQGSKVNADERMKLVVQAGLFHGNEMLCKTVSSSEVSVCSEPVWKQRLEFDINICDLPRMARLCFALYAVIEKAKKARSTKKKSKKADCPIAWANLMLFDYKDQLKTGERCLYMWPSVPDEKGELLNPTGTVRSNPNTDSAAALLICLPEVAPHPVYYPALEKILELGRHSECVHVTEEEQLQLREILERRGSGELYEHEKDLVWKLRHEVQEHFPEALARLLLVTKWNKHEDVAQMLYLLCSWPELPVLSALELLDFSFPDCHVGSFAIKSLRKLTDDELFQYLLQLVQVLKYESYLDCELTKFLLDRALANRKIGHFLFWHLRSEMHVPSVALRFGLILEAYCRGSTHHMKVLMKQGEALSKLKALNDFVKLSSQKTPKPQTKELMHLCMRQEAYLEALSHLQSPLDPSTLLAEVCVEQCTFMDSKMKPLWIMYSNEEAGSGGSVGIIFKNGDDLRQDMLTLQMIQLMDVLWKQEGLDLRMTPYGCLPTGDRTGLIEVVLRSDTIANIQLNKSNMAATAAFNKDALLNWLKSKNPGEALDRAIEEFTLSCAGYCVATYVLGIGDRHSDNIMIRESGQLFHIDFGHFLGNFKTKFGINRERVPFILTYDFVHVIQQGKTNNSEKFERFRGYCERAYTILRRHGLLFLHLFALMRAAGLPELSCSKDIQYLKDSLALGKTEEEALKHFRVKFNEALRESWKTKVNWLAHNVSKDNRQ
T4 sequence (P27986 whole entry partner): as the sequence (P27986 whole entry partner) above
Method: as §2, §3, §4, §5, §6, §7

PI3Kδ [7] = molecular target: T4, PI3Kδ; assay: Biochemical assay of PI3K potency and selectivity using 20 μM ATP, Delta; design: His tag (pFastbac HTb vector) (N); FLAG; made in house; host or cells: Sf21 insect cells (baculovirus)
Method in brief: as §1

[8] = neutrophil (PMN) migration, read-out: Human PMN Migration (EC50)
[9] = 20 μM ATP, read-out: Delta IC50

For `O=c1c2c(F)cccc2nc(CSc2ncnc3[nH]cnc23)n1-c1ccccc1Cl` [Compound D-015, 3-(2-Chlorophenyl)-5-fluoro-2-(9H-purin-6-ylsulfanylmethyl)-3H-quinazolin-4-one], the “Beta/Delta Ratio” value (PI3Kβ [1]) was over 480, the remaining activity at 100 µM (PI3Kβ [1]) was 69% and the IC50 (PI3Kγ [2]) was 3600 nM. For the same molecule, the “Gamma/Delta Ratio” value (PI3Kγ [2]) was 17, the “Alpha/Delta Ratio” value (PI3Kα) was 180 and the “Beta/Delta Ratio” value (PI3Kβ [3]) was 154. For the same molecule, the “Gamma/Delta Ratio” value (PI3Kγ [4]) was 160, the EC50 (human neutrophils; [8]) was 2000 nM and the EC50 [5] was 1200 ± 200 nM. The IC50 (PI3Kδ [6]) was 1100 ± 500 nM and the IC50 (PI3Kδ [7]; [9]) was 210 nM.

In the case of `O=c1c2ccccc2nc(CSc2ncnc3[nH]cnc23)n1-c1ccccc1Cl` [Compound D-000, 3-(2-chlorophenyl)-2-(9H-purin-6-ylsulfanylmethyl)-3H-quinazolin-4-one], the “Beta/Delta Ratio” value (PI3Kβ [1]) is reported as over 302, the IC50 (PI3Kβ [1]; Example 2 assay conditions, limit of 100 μM compound, read-out: IC50, β isoform of PI3K (FIG. 1)) is reported as over 100000 nM and the remaining activity at 100 µM (PI3Kβ [1]) is reported as 74%. The IC50 (PI3Kγ [2]) was 7700 nM, the “Gamma/Delta Ratio” value (PI3Kγ [2]) was 23 and the “Alpha/Delta Ratio” value (PI3Kα) was 91. The “Beta/Delta Ratio” value (PI3Kβ [3]) was 84, the “Gamma/Delta Ratio” value (PI3Kγ [4]) was 18 and the IC50 (PI3Kγ [4]) was 35000 ± 35000 nM. It also gave an EC50 (human neutrophils; Neutrophil, fMLP (5 μM) gradient, 4 hr, FIG. 5, read-out: EC50 for inhibition of neutrophil migration) of about 1000 nM, an EC50 (human neutrophils; [8]) of 1000 to 5000 nM and an IC50 ([5]; anti-IgM 25 μg/mL, 3 days, [3H]-thymidine, FIG. 8, read-out: Concentration reducing anti-IgM-stimulated B cell proliferation to its half-maximal value) of about 1000 nM. The EC50 [5] was 900 ± 400 nM, the IC50 (PI3Kδ [6]) was 2000 ± 1000 nM and the IC50 (PI3Kδ [7]; [9]) was 330 nM. It also gave an IC50 (PI3Kδ [7]; Example 2 assay conditions, read-out: IC50, δ isoform of PI3K (FIG. 1)) of about 300 nM.

In the case of `O=c1c2ccccc2nc(CSc2ncnc3[nH]ncc23)n1-c1ccccc1Cl` [Compound D-999, 3-(2-Chlorophenyl)-2-(1H-pyrazolo[3,4-d]pyrimidin-4-ylsulfanylmethyl)-3H-quinazolin-4-one, reference compound], the “Beta/Delta Ratio” value (PI3Kβ [1]) is reported as 2.1, the remaining activity at 100 µM (PI3Kβ [1]) is reported as 71% and the IC50 (PI3Kγ [2]) is reported as 60000 nM. The “Gamma/Delta Ratio” value (PI3Kγ [2]) was 1.3, the “Alpha/Delta Ratio” value (PI3Kα) was 2 and the “Beta/Delta Ratio” value (PI3Kβ [3]) was 2. The “Gamma/Delta Ratio” value (PI3Kγ [4]) was 1, the IC50 (PI3Kγ [4]) was 90000 nM and the EC50 (human neutrophils; [8]) was 1000 nM. The EC50 [5] was 3100 ± 700 nM, the IC50 (PI3Kδ [6]) was 75000 nM and the IC50 (PI3Kδ [7]; [9]) was 47000 nM.

`O=c1c2c(Cl)cccc2nc(CSc2ncnc3[nH]cnc23)n1-c1ccccc1Cl` [Compound D-025, 5-Chloro-3-(2-chlorophenyl)-2-(9H-purin-6-ylsulfanylmethyl)-3H-quinazolin-4-one] was tested, and the “Beta/Delta Ratio” value (PI3Kβ [1]) was over 909, the remaining activity at 100 µM (PI3Kβ [1]) was 61% and the IC50 (PI3Kγ [2]) was 1500 nM. For the same molecule, the “Gamma/Delta Ratio” value (PI3Kγ [2]) was 14, the “Alpha/Delta Ratio” value (PI3Kα) was 556 and the “Gamma/Delta Ratio” value (PI3Kγ [4]) was 24. It also gave an IC50 (PI3Kγ [4]) of 7800 ± 3000 nM, an EC50 (human neutrophils; [8]) of 300 ± 300 nM and an EC50 [5] of 300 ± 100 nM. For the same molecule, the IC50 (PI3Kδ [6]) was 320 ± 300 nM and the IC50 (PI3Kδ [7]; [9]) was 110 nM.
